Experimental data: paper PMC11313435, “Identification of Antioxidant Methyl Derivatives of Ortho-Carbonyl Hydroquinones That Reduce Caco-2 Cell Energetic Metabolism and Alpha-Glucosidase Activity” (International Journal of Molecular Sciences, 2024)
Entries after “also recorded” stand apart in the source; their conditions may differ.

How the values were obtained:
Caco-2 cells [1] = test: Extracellular acidification rate and oxygen consumption rate in real time (Seahorse XFe96); assay type: cell-based, human; conditions: Caco-2, 100 µM; for Effect on max OCR: 24 h (Figures 3C, 4A-D); for Effect on basal mitochondrial OCR / Effect on glycolysis (ECAR) / Effect on glycolysis, cluster in dendrogram: 24 h; for Effect on basal mitochondrial OCR: compared to control (Figures 3B, 4A-D); for Effect on glycolysis (ECAR): compared to control (Figures 3B, 4E-H); for Effect on glycolysis, cluster in dendrogram: clusters of Figure 3C; for Effect on proton leak-driven OCR: 24 h (Figure 4A-D)
Procedure: We previously described how ortho-carbonyl hydroquinone scaffolds inhibit oxidative phosphorylation in breast cancer cells. Since the reduction in glucose utilization and metabolism in intestinal cells is a promising target for T2DM treatment, the effect of these compounds on mitochondrial respiration and glycolysis in Caco-2 cells was determined. […] The effect of ortho-carbonyl hydroquinone series (100 µM) on five parameters of mitochondrial respiration (basal OCR, max OCR, spare capacity, ATP-linked OCR, and proton leak-driven OCR), and two of glycolysis (glycolytic capacity and glycolysis), is represented in a dendrogram (Figure 3C). […] OCR: compounds 1, 6, 7, and 9. […] No correlations between OCR and ECAR parameters, α-glucosidase activity inhibition, or ORAC were observed (Supplementary Figure S1).
In contrast, compound 10 increases the proton leak-OCR and decreases max OCR (Figure 4A–D).
To analyze the extracellular acidification rate (ECAR), Caco-2 cells (10,000 cells/well) were seeded on XFe96 V3-PS multi-well plates and kept for 24 h at 37 °C in 5% CO2 with a DMEM culture medium supplemented with FBS. After 24 h, the cells were stimulated by compounds at 100 μM for 24 h. Then, the culture medium was replaced with assay media (unbuffered DMEM without red phenol, with 4 mM glutamine and 10 mM glucose, pH = 7.4) 1 h before the assay. Glycolysis was evaluated by the sequential injection of 10 mM glucose, 1 µM oligomycin, and 100 mM 2-deoxy-D-glucose (2-DG), and ECAR was analyzed using specific excitation and emission wavelengths of protons (470/530 nm). To study the mitochondrial function, the sequential injection of 1 μM oligomycin, 250 nM FCCP, 1 μM rotenone, and 1 μM antimycin A was added. The oxygen consumption rate (OCR) measurements were made with the specific excitation and emission wavelengths of the fluorescent probes for oxygen (532/650 nm) using a Seahorse XFe96 Analyzer (Seahorse Agilent, USA), and OCR and ECAR data were normalized by protein content/well, which was determined using a BCA kit. Each experiment was performed at least in triplicate. The OCR/ECAR data analysis and dendrograms were performed using XLSTAT software (version 2023.2.1414, Lumivero, New York, NY, USA).

α-glucosidase = α-glucosidase inhibitory activity (p-nitrophenyl α-D-glucopyranoside substrate); assay type: biochemical; conditions: for pIC50 (α-glucosidase): pIC50 = −log[IC50], Figure 2A; for IC50: pH 6.9, 37 °C, 15 min, mean ± SD of three experiments, read-out: Inhibition of α-Glucosidase Activity IC50
Procedure: The inhibition of α-glucosidase was determined following a previous method [62] using p-nitrophenyl α-D-glucopyranoside as a substrate. The reaction mixture contained 160 µL of 0.1 M sodium phosphate buffer (pH = 6.9), 5 µL of enzyme (5.46 U/mL), and polyphenolic extract (0.17–1.36 µg/mL). After the pre-incubation of the reaction mixture on ice for 5 min, the enzyme reaction was started by adding 5 µL of 25 mM p-nitrophenyl α-D-glucopyranoside into this mixture. The reaction was incubated for 15 min at 37 °C. Then, 80 µL of 0.2 M sodium carbonate was added. The absorbance was measured at 405 nm in a microplate reader (Biotek ELx808, Agilent, Santa Clara, CA, USA). Enzyme inhibition was calculated using the following equation: % inhibition = (A0 − As)/A0 × 100, where A0 is the absorbance of the control (blank, without extract) and As is the absorbance in presence of the extract. IC50 values denote the µg GAE/mL required to inhibit the enzyme by 50%.

[2] = ORAC assay (oxygen radical absorbance capacity, ORAC-FL); conditions: radical scavenging against peroxyl radicals; mean ± SD of three experiments
Procedure: The radical-scavenging activities of the hydroquinone series against peroxyl radicals were assessed (ORAC assays). […] Similarly, for the series with the gem-diethyl group on ring B (compounds 6–10), compound 6 presents the highest antioxidant capacity (7.0 + 0.3 mol TE/mol compound). […] The replacement of the gem-dimethyl with the gem-diethyl group also decreases the antioxidant capacity.
The antioxidant activity was determined by ORAC (oxygen radical absorbance capacity) assays. Briefly, the antioxidant capacity for ORAC-FL was estimated by measuring the changes in fluorescence after 120 min of reaction with the radical. Assays were performed using a 96-well microplate in a Synergy H1 hybrid multi-mode microplate reader (Biotek, Winooski, VT, USA), and the results were expressed as µmol Trolox 100 g^−1 DW. Three replicates were accomplished for each analysis.

Caco-2 cells [3] = test: Menadione-induced cytosolic (DHE) and mitochondrial (MitoSOX) ROS by flow cytometry; assay type: cell-based, human; conditions: Caco-2, 100 and 200 µM for 24 h, then 25 µM menadione 1 h; for Effect on menadione-induced mitochondrial ROS production: MitoSOX Red
Procedure: Using menadione as an ROS inducer, the preventive effect of compounds 5 and 10 on mitochondrial and cytosolic ROS production was evaluated. No changes in the mitochondrial ROS production were observed (Figure 4I).
The mtROS and ROS levels were measured using MitoSOX® Red Mitochondrial Superoxide (Invitrogen, Carlsbad, CA, USA) and Invitrogen™ Dihydroethidium (Hydroethidine, DHE) probes, respectively. The Caco-2 cells were incubated in 12-well plates at 50,000 cells for 24 h. The cells were treated with compounds 5 and 10 at 100 μM and 200 μM for 24 h. Next, the cells were incubated with 25 μM menadione 25 μM for 1 h, and then the cells were washed with PBS and incubated with MitoSOX Red® (5 µM) or DHE (5 μM) for 30 min. Then, they were recollected, and washed, and the fluorescence was detected by flow cytometry according to Urra et al., 2018 [31].

Caco-2 cells [4] = test: MTT assay, cell proliferation; assay type: cell-based, human; conditions: Caco-2, 24 h treatment, 1-100 µM (Figure 3A)
Procedure: We evaluate the effect of ortho-carbonyl hydroquinones 1–10 on the intestinal Caco-2 cell line at 24 h of treatment.
Caco-2 cells were grown in Dulbecco’s modified Eagle’s Medium/Nutrient Mixture F-12 (D-MEM/F-12), supplemented with 5% fetal bovine serum (FBS), penicillin (100 IU/mL), streptomycin (100 μg/mL), and nonessential amino acid solution 1% (GIBCO, Thermo Fisher Scientific, Grand Island). The culture media contained no exogenous pyruvate supplementation, and the cells were maintained in a humidified atmosphere at 37 °C and 5% CO2.
The cell proliferation was determined using the MTT assay. The cells were incubated in 96-well plates at 7000 cells per well and incubated for 24 h. The cells were treated for 24 h with compounds (1, 5, 10, 30, 50, and 100 μM). After treatment, the culture medium was removed, and the cells were incubated with MTT for 1 h at 37 °C. Finally, 100 μL of DMSO was added and measured by spectrophotometry at 570 nm, as previously described.

Structure (SMILES) | Effect on max OCR (Caco-2 cells [1]) | Effect on basal mitochondrial OCR (Caco-2 cells [1]) | Effect on glycolysis (ECAR) (Caco-2 cells [1]) | Effect on glycolysis, cluster in dendrogram (Caco-2 cells [1]) | pIC50 (α-glucosidase) (α-glucosidase) | ORAC [2] [mol TE/mol Compound] | melting point [°C] | IC50 (α-glucosidase) [µM] | Effect on menadione-dependent cytosolic ROS production (Caco-2 cells [3]; DHE) | Effect on menadione-induced mitochondrial ROS production (Caco-2 cells [3]) | Effect on MTT reduction (Caco-2 cells [4]) | Effect on proton leak-driven OCR (Caco-2 cells [1]) | Effect on max OCR (Caco-2 cells [1]; listed as compound 10)
CC1(C)C=CC(=O)c2c(O)ccc(O)c21 [Compound 1, 5,8-Dihydroxy-4,4-dimethylnaphthalen-1(4H)-one] | strong inhibitory effect on max. OCR | reduces the basal mitoOCR | increases ECAR | glycolysis enhancers | 3.72 | – | – | – | – | – | – | – | –
CCC1(CC)C=CC(=O)c2c(O)c(C)cc(O)c21 [Compound 8, 4,4-Diethyl-5,8-dihydroxy-7-methylnaphthalen-1(4H)-one] | reduced effect on max OCR | – | reduces the glycolysis | glycolysis inhibitors | 4.20 | 5.9 ± 0.3 | 198.2 | 60 | – | – | – | – | –
Cc1cc(O)c2c(c1O)C(=O)C=CC2(C)C [Compound 3, 5,8-Dihydroxy-4,4,7-trimethylnaphthalen-1(4H)-one] | reduced effect on max OCR | – | reduces the glycolysis | glycolysis inhibitors | 3.26 | 3.9 ± 0.1 | 204 | > 500 | – | – | – | – | –
CC1=CC(C)(C)c2c(O)c(C)c(C)c(O)c2C1=O [Compound 5, 5,8-Dihydroxy-2,4,4,6,7-pentamethylnaphthalen-1(4H)-one] | reduced effect on max OCR; also recorded: reduces | reduces | reduces the glycolysis; also recorded: significantly reduce the glycolysis | glycolysis inhibitors | 3.98 | 0.37 ± 0.01 | 199.9 to 201.5 | 103 | significantly prevented | No changes | significantly increased the MTT reduction | without affecting | –
CCC1(CC)C=CC(=O)c2c(O)c(C)c(C)c(O)c21 [Compound 9, 4,4-Diethyl-5,8-dihydroxy-6,7-dimethylnaphthalen-1(4H)-one] | strong inhibitory effect on max. OCR | – | reduces the glycolysis | glycolysis enhancers | 3.29 | 0.83 ± 0.03 | 174.9 to 179.8 | > 500 | – | – | – | – | –
CCC1(CC)C=CC(=O)c2c(O)ccc(O)c21 [Compound 6, 4,4-Diethyl-5,8-dihydroxynaphthalen-1(4H)-one] | strong inhibitory effect on max. OCR | reduces the basal mitoOCR | increases ECAR | glycolysis enhancers | 3.71 | 7.0 ± 0.3 | – | 195 | – | – | decreased the MTT reduction | – | –
CCC1(CC)C=CC(=O)c2c(O)cc(C)c(O)c21 [Compound 7, 4,4-Diethyl-5,8-dihydroxy-6-methylnaphthalen-1(4H)-one] | strong inhibitory effect on max. OCR | lacking effect on OCR | increases the glycolysis | glycolysis enhancers | 3.96 | 7.2 ± 0.4 | – | 110 | – | – | – | – | –
Cc1cc(O)c2c(c1O)C(C)(C)C=CC2=O [Compound 2, 5,8-Dihydroxy-4,4,6-trimethylnaphthalen-1(4H)-one] | reduced effect on max OCR | – | reduces the glycolysis | glycolysis inhibitors | 3.85 | 5.5 ± 0.2 | – | 140 | – | – | – | – | –
CCC1(CC)C=C(C)C(=O)c2c(O)c(C)c(C)c(O)c21 [Compound 10, 4,4-Diethyl-5,8-dihydroxy-2,6,7-trimethylnaphthalen-1(4H)-one] | reduced effect on max OCR | – | reduces the glycolysis; also recorded: significantly reduce the glycolysis | glycolysis inhibitors | 4.10 | 0.10 ± 0.01 | – | 78 | – | No changes | significantly increased the MTT reduction | increases | decreases
Cc1c(C)c(O)c2c(c1O)C(=O)C=CC2(C)C [Compound 4, 5,8-Dihydroxy-4,4,6,7-tetramethylnaphthalen-1(4H)-one] | reduced effect on max OCR | lacking effect on OCR | increases the glycolysis | glycolysis inhibitors | 3.61 | 1.05 ± 0.03 | – | 245 | – | – | – | – | –
